Assay results as given in patent US20240285785A1, “TARGETING SORTILIN” (priority 2022, published 2024).

Columns and labels:
SORT1 = biological target: T1, SORT1 (Homo sapiens, UniProt Q99523); experiment: Competition binding in FP; details: FP competition binding assays, PDC vs parent peptide
T1 construct: Human SORT1 (78-755)-His (Acrobiosystems); His (C); purchased Acrobiosystems SON—H52H5
T1 sequence (Q99523 78-755): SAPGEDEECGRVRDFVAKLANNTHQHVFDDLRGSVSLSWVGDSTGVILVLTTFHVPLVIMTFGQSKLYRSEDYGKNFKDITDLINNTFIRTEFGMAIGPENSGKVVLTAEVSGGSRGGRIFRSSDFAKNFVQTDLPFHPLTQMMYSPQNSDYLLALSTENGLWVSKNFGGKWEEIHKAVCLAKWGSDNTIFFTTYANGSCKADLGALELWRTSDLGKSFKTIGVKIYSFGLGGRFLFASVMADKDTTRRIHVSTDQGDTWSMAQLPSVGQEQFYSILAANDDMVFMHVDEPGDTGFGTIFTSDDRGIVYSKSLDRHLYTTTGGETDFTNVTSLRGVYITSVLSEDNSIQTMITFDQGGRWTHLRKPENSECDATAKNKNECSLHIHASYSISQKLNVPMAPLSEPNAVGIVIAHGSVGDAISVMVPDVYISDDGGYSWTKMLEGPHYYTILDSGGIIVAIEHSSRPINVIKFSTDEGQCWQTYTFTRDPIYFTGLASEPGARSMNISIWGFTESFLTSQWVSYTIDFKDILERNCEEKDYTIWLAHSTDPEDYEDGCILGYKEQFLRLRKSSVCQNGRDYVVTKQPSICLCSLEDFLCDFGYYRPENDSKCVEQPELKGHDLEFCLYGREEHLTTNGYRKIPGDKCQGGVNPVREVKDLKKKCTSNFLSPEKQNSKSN
Protocol: Competition binding studies were conducted in a similar manner to the direct binding protocol. Unlabeled peptides were prepared with a 12-point, two-fold dilution series in a V-bottom 96-well plate for a total volume of 25 μL with a starting concentration of 50 μM. A 10× working stock of the FAM labeled peptide was prepared as described for the Direct binding experiment.
An aliquot of 20 μL of the 500 nM working solution was then added to 2.5 μL of the FAM-peptide, after which 2.5 μL of the unlabeled peptide dilution series was added and mixed by pipetting in a V-bottom 96-well plate. Samples were allowed to incubate for 15 minutes, then 10 μL of the mixture was transferred to an opaque black 384-well non-binding FP plate (Corning® Low Volume 384-well Black Flat Bottom Polystyrene NBS Microplate, #3820) in technical duplicates. The 384-well plate was then centrifuged 1 min, 4000 rpm and fluorescence and polarization of dye measured on a Biotek Synergy Neo2 plate reader using the same settings as for the Direct Binding experiment. Data were then fitted to a One site—Fit logIC50 curve in GraphPad to calculate the IC50.

[1] = Murine hematotoxicity assay; format: in vivo, BALB/c mice; details: 3 mg/kg i.v. QW×4, compared to vehicle or MMAE treatment
Protocol: Murine hematotoxicity experiments were conducted at Charles River Laboratories and the care and use of animals was conducted in accordance with the regulations of the Association for Assessment and Accreditation of Laboratory Animal Care (AAALAC). Wild type BALB/c, female, 7-8 weeks, weighing approximately 18-22 g were randomized and dosed intravenously with control or test articles at a QW×4 schedule. Dosing volume was adjusted based on body weight and was administered at 10 mL/Kg. PDCs were dissolved in 25 mM Histidine 10% sucrose pH 7 and 3 mg/kg was administered. Free MMAE payload was also tested, and similarly dissolved in 25 mM Histidine 10% sucrose pH 7 and administered to the mice at a dose of […] by i.v. injection at a QW×4 schedule. 3 days following each dose, 150 μL of whole blood was collected via submandibular method and placed in K2 EDTA tubes stored on ice. Blood neutrophil counts were performed on the day of collection by IDEXX labs. Body weights were recorded twice a week until study endpoint.
As outlined in the material and methods of Example 1, wild type BALB/c, female, 7-8 weeks, weighing approximately 18-22 g were randomized and dosed intravenously with control or test articles at a QW×4 schedule. Dosing volume was adjusted based on body weight and was administered at 10 ml/Kg. […] Free MMAE payload was also tested, and similarly dissolved in 25 mM Histidine 10% sucrose pH 7 and administered to the mice at a dose of […] by i.v. injection at a QW×4 schedule. 3 days following each dose, 150 μL of whole blood was collected via submandibular method and placed in K2 EDTA tubes stored on ice. Blood neutrophil counts were performed on the day of collection by IDEXX labs. Body weights were recorded twice a week until study endpoint.

MDA-MB-231 tumor cells = experiment: MDA-MB-231 murine xenograft efficacy model; format: in vivo, BALB/c Nude mice
Protocol: Murine xenograft experiments were conducted at WuXi AppTec and/or Charles River Laboratories and the care and use of animals was conducted in accordance with the regulations of the Association for Assessment and Accreditation of Laboratory Animal Care (AAALAC). MDA-MB-231 tumor cells (ATCC, Manassas, VA, cat #HTB-26) were grown and maintained in L15 medium supplemented with 10% heat inactivated fetal bovine serum, 1% Antibiotic-Antimycotic, and L-glutamine (2 mM) at 37° C. in an atmosphere in 5% CO2, 95% air. BALB/c Nude, female, 6-8 weeks, weighing approximately 18-22 g were purchased from Vital River Laboratory Animal Technology Co., LTD. Mice were inoculated subcutaneously at the right flank with MDA-MB-231 tumor cells (e.g., triple negative breast cancer cells) (10×10^6) in 0.2 mL of PBS with Matrigel (1:1) for tumor development. Animals were randomized and treatment was started when the average tumor volume reached approximately 150-200 mm^3 for the efficacy study. Dosing volume was adjusted based on body weight and was administered at 10 ml/Kg. […] Free MMAE payload was also tested, and similarly dissolved in 25 mM Histidine 10% sucrose pH 7 and one or more of the following doses, 0.6, 0.06 mg/kg, were administered to the mice i.v. at a QW×4 schedule. Tumor sizes were measured twice weekly in two dimensions using a caliper, and the volume in mm^3 calculated using the formula: V=0.5 a×b^2, where a and b are the long and short diameters of the tumor, respectively. TGI was calculated for each group using the formula: TGI (%)=[1−(Ti−T0)/(Vi−V0)]×100; where Ti is the average tumor volume of a treatment group on a given day, T0 is the average tumor volume of the treatment group on the first day of treatment, Vi is the average tumor volume of the vehicle control group on the same day with Ti, and V0 is the average tumor volume of the vehicle group on the first day of treatment.

## CC[C@H](C)[C@@H]([C@@H](CC(=O)N1CCC[C@H]1[C@H](OC)[C@@H](C)C(=O)N[C@H](C)[C@@H](O)c1ccccc1)OC)N(C)C(=O)[C@@H](NC(=O)[C@H](C(C)C)N(C)C(=O)OCc1ccc(NC(=O)[C@H](CCCNC(N)=O)NC(=O)[C@@H](NC(=O)CCCC(=O)NCCC(=O)N(C)CC(=O)N(C)CC(=O)N(C)CC(=O)N(C)CC(=O)N[C@@H](C)C(=O)N2CCC[C@H]2C(=O)N[C@@H](CCCNC(=N)N)C(=O)N[C@@H](Cc2c[nH]c3ccccc23)C(=O)N[C@@H](CC(=O)O)C(=O)N[C@@H](C)C(=O)N2CCC[C@H]2C(=O)N[C@@H](CC(C)C)C(=O)N[C@@H](CCCNC(=N)N)C(=O)N[C@@H](CC(=O)O)C(=O)N2CCC[C@H]2C(=O)N[C@@H](C)C(=O)N[C@@H](CC(C)C)C(=O)N[C@@H](CCCNC(=N)N)C(=O)N[C@@H](CCC(N)=O)C(=O)N[C@@H](CC(C)C)C(=O)N[C@@H](CC(C)C)C(=O)O)C(C)C)cc1)C(C)C [PRGN_WT_PDC]
SORT1
  increase in affinity relative to parent homing peptide: ~2.5 ×
[1]
  blood neutrophil counts: reduced neutrophil counts
MDA-MB-231 tumor cells; 3 mg/kg i.v. QW×4, day 22 (Example 8)
  tumor growth inhibited relative to vehicle: 96%
MDA-MB-231 tumor cells; 3, 1, 0.3 mg/kg i.v. QW x 4
  tumor growth inhibition: dose-dependent tumor growth inhibition
MDA-MB-231 tumor cells; Example 6, PDC 3, 1, 0.3 mg/kg, free MMAE at equivalency to 3 mg/kg PDC
  body weight variation: mirrored that observed with vehicle treatment
MDA-MB-231 tumor cells; Example 8, PDC 3 mg/kg, free MMAE 0.6 mg/kg, i.v. QW×4
  body weight loss: body weight loss tracked each other
